# Target: T1, recombinant human SYK360-635 (Homo sapiens, UniProt P43405)
# T1 construct: made in house
# Assay: Determination of IC50 of Spleen Tyrosine Kinase (SYK) inhibition, 33P ATP filtration assay
# Assay type: biochemical
# Conditions: SYK aa 360-635 0.5 nM; ATP 20 μM, peptide 5 μM, 0.1% BSA; read-out: SYK_ENZYME_FILTRATION/v1, BSA
row,IC50,SMILES
1,33.5 nM,"Cn1nc(-c2cnc3[nH]cc(C(=O)NC(C)(C)C)c3n2)c2ccc(C(F)(F)F)cc21 [Example I-420, 2-(1-Methyl-6-trifluoromethyl-1H-indazol-3-yl)-5H-pyrrolo[2,3-b]pyrazine-7 carboxylic acid tert-butylamide]"
2,107 nM,"CC(C)(C)NC(=O)c1c[nH]c2ncc(-n3ncc4ccc(F)cc43)nc12 [Example I-332, 2-(6-Fluoro-indazol-1-yl)-5H-pyrrolo[2,3-b]pyrazine-7-carboxylic acid tert-butylamide]"
3,28.1 nM,"CC(C)(C)NC(=O)c1c[nH]c2ncc(-c3nn(CCC4OCCCO4)c4ccc(OC(F)F)cc34)nc12 [Example I-297, 2-[5-Difluoromethoxy-1-(2-[1,3]dioxan-2-yl-ethyl)-1H-indazol-3-yl]-5H-pyrrolo[2,3-b]pyrazine-7-carboxylic acid tert-butylamide]"
4,6.85 nM,"Cn1nc(-c2cnc3[nH]cc(C(=O)NC(C)(C)C)c3n2)c2cc(C#N)ccc21 [Example I-260, 2-(5-Cyano-1-methyl-1H-indazol-3-yl)-5H-pyrrolo[2,3-b]pyrazine-7-carboxylic acid tert-butylamide]"
5,13.3 nM,CC(C)NC(=O)c1c[nH]c2ncc(-c3nn(CCCN(C)C)c4ccc(OC(F)F)cc34)nc12 [Example I-450]
6,73.6 nM,"Cn1nc(-c2cnc3[nH]cc(C(=O)NC(C)(C)C)c3n2)c2cc(C(F)(F)F)ccc21 [Example I-412, 2-(1-Methyl-5-trifluoromethyl-1H-indazol-3-yl)-5H-pyrrolo[2,3-b]pyrazine-7-carboxylic acid tert-butylamide]"
7,4190 nM,"Cn1c2c(c(-c3cnc4[nH]cc(C(=O)NC(C)(C)C)c4n3)[n+]1[O-])CCCC2 [Example I-294, 2-(1-Methyl-2-oxy-4,5,6,7-tetrahydro-1H-indazol-3-yl)-5H-pyrrolo[2,3-b]pyrazine-7-carboxylic acid tert-butylamide]"
8,970 nM,"CC(C)(C)NC(=O)c1c[nH]c2ncc(-c3nccc4cc[nH]c34)nc12 [Example I-328, 2-(1H-Pyrrolo[2,3-c]pyridin-7-yl)-5H-pyrrolo[2,3-b]pyrazine-7 carboxylic acid tert-butylamide]"
9,5.98 nM,"CC(C)(C)NC(=O)c1c[nH]c2ncc(-c3nn(CC4CNC4)c4ccc(OC(F)F)cc34)nc12 [Example I-350, 2-(1-Azetidin-3-ylmethyl-5-difluoromethoxy-1H-indazol-3-yl)-5H-pyrrolo[2,3-b]pyrazine-7-carboxylic acid tert-butylamide]"
10,8.88 nM,"COc1nn(-c2cnc3[nH]cc(C(=O)NC(C)(C)CO)c3n2)c2ccccc12 [Example I-344, 2-(3-Methoxy-indazol-1-yl)-5H-pyrrolo[2,3-b]pyrazine-7-carboxylic acid (2-hydroxy-1,1-dimethyl-ethyl)-amide]"
11,82.2 nM,"CC(C)(C)NC(=O)c1c[nH]c2ncc(-n3ncc4ccc(Cl)cc43)nc12 [Example I-329, 2-(6-Chloro-indazol-1-yl)-5H-pyrrolo[2,3-b]pyrazine-7-carboxylic acid tert-butylamide]"
12,63.9 nM,"Cc1ccc2c(cnn2-c2cnc3[nH]cc(C(=O)NC(C)(C)C)c3n2)c1 [Example I-333, 2-(5-Methyl-indazol-1-yl)-5H-pyrrolo[2,3-b]pyrazine-7-carboxylic acid tert-butylamide]"
13,9.7 nM,"Cc1ccc2c(-c3cnc4[nH]cc(C(=O)NC(C)(C)CO)c4n3)nn(CC(=O)N3CCOCC3)c2c1 [Example I-439, 2-[6-Methyl-1-(2-morpholin-4-yl-2-oxo-ethyl)-1H-indazol-3-yl]-5H-pyrrolo[2,3-b]pyrazine-7-carboxylic acid (2-hydroxy-1,1-dimethyl-ethyl)-amide]"
14,24.6 nM,"CC(C)(C)NC(=O)c1c[nH]c2ncc(-c3nn(C4CCNC4)c4cc(F)ccc34)nc12 (stereo not drawn) [Example I-258, 2-(6-Fluoro-1-pyrrolidin-3-yl-1H-indazol-3-yl)-5H-pyrrolo[2,3-b]pyrazine-7-carboxylic acid tert-butylamide]"
15,9.95 nM,"C#CC(C)(C)NC(=O)c1c[nH]c2ncc(-c3nn(C)c4cc(F)ccc34)nc12 [Example I-380, 2-(6-Fluoro-1-methyl-1H-indazol-3-yl)-5H-pyrrolo[2,3-b]pyrazine-7-carboxylic acid (1,1-dimethyl-prop-2-ynyl)-amide]"
16,595 nM,"CC(C)(C)NC(=O)c1c[nH]c2ncc(-n3ncc4cc(C(F)(F)F)ccc43)nc12 [Example I-337, 2-(5-Trifluoromethyl-indazol-1-yl)-5H-pyrrolo[2,3-b]pyrazine-7-carboxylic acid tert-butylamide]"

row,IC50,SMILES
1,> 10000 nM,"Cn1nc(-c2cnc3[nH]cc(C(=O)Nc4ccccc4)c3n2)c2ccc(Cl)cc21 [Example I-396, 2-(6-Chloro-1-methyl-1H-indazol-3-yl)-5H-pyrrolo[2,3-b]pyrazine-7-carboxylic acid phenylamide]"
2,17.2 nM,"CN1CCOC(Cn2nc(-c3cnc4[nH]cc(C(=O)NC(C)(C)C)c4n3)c3cc(OC(F)F)ccc32)C1 (stereo not drawn) [Example I-342, 2-[5-Difluoromethoxy-1-(4-methyl-morpholin-2-ylmethyl)-1H-indazol-3-yl]-5H-pyrrolo[2,3-b]pyrazine-7-carboxylic acid tert-butylamide]"
3,> 10000 nM,"Cn1nc(-c2cnc3[nH]cc(C(=O)Nc4cccc(C#N)c4)c3n2)c2ccc(Cl)cc21 [Example I-404, 2-(6-Chloro-1-methyl-1H-indazol-3-yl)-5H-pyrrolo[2,3-b]pyrazine-7-carboxylic acid (3-cyano-phenyl)-amide]"
4,11.3 nM,"Cn1nc(-c2cnc3[nH]cc(C(=O)NCC4CC4)c3n2)c2ccc(Cl)cc21 [Example I-317, 2-(6-Chloro-1-methyl-1H-indazol-3-yl)-5H-pyrrolo[2,3-b]pyrazine-7-carboxylic acid cyclopropylmethyl-amide]"
5,295 nM,"CC(C)(C)NC(=O)c1c[nH]c2ncc(-c3nn(CC4CN(Cc5ccccc5)CCO4)c4ccc(OC(F)F)cc34)nc12 (stereo not drawn) [Example I-340, 2-[1-(4-Benzyl-morpholin-2-ylmethyl)-5-difluoromethoxy-1H-indazol-3-yl]-5H-pyrrolo[2,3-b]pyrazine-7-carboxylic acid tert-butylamide]"
6,23.5 nM,"Cn1nc(-c2cnc3[nH]cc(C(=O)NC4(CO)CCC4)c3n2)c2ccc(F)cc21 [Example I-256, 2-(6-Fluoro-1-methyl-1H-indazol-3-yl)-5H-pyrrolo[2,3-b]pyrazine-7-carboxylic acid (1-hydroxymethyl-cyclobutyl)-amide]"
7,17.9 nM,"CN(C)C(=O)CCn1nc(-c2cnc3[nH]cc(C(=O)NC(C)(C)C)c3n2)c2cc(OC(F)F)ccc21 [Example I-339, 2-[5-Difluoromethoxy-1-(2-dimethylcarbamoyl-ethyl)-1H-indazol-3-yl]-5H-pyrrolo[2,3-b]pyrazine-7-carboxylic acid tert-butylamide]"
8,8.92 nM,"CC(C)(C)NC(=O)c1c[nH]c2ncc(-c3ncn4cc(Cl)ccc34)nc12 [Example I-356, 2-(6-Chloro-imidazo[1,5-a]pyridin-1-yl)-5H-pyrrolo[2,3-b]pyrazine-7-carboxylic acid tert-butylamide]"
9,1.95 nM,"Cn1nc(-c2cnc3[nH]cc(C(=O)N[C@]4(C)CC[C@@H](N)CC4)c3n2)c2ccc(F)cc21 [Example I-416, 2-(6-Fluoro-1-methyl-1H-indazol-3-yl)-5H-pyrrolo[2,3-b]pyrazine-7-carboxylic acid (trans-4-amino-1-methyl-cyclohexyl)-amide]"
10,221 nM,"CC(C)(C)NC(=O)c1c[nH]c2ncc(-n3ncc4cc(F)c(F)cc43)nc12 [Example I-327, 2-(5,6-Difluoro-indazol-1-yl)-5H-pyrrolo[2,3-b]pyrazine-7-carboxylic acid tert-butylamide]"
11,5.8 nM,"CC(C)NC(=O)c1c[nH]c2ncc(-c3nn(C)c4ccc(O)cc34)nc12 [Example I-65, 2-(5-Hydroxy-1-methyl-1H-indazol-3-yl)-5H-pyrrolo[2,3-b]pyrazine-7-carboxylic acid isopropylamide]"
12,41 nM,"Cn1nc(-c2cnc3[nH]cc(C(=O)NC(C)(C)C)c3n2)c2ccc(OC(F)(F)F)cc21 [Example I-370, 2-(1-Methyl-6-trifluoromethoxy-1H-indazol-3-yl)-5H-pyrrolo[2,3-b]pyrazine-7-carboxylic acid tert-butylamide]"
13,988 nM,"CC(C)(C)NC(=O)c1c[nH]c2ncc(-n3ncc4ccc(C(F)(F)F)cc43)nc12 [Example I-330, 2-(6-Trifluoromethyl-indazol-1-yl)-5H-pyrrolo[2,3-b]pyrazine-7-carboxylic acid tert-butylamide]"
14,145 nM,"Cn1nc(-c2cnc3[nH]cc(C(=O)NC(C)(C)CN)c3n2)c2ccc(F)cc21 [Example I-379, 2-(6-Fluoro-1-methyl-1H-indazol-3-yl)-5H-pyrrolo[2,3-b]pyrazine-7-carboxylic acid (2-amino-1,1-dimethyl-ethyl)-amide]"
15,8.62 nM,"CC(C)(C)NC(=O)c1c[nH]c2ncc(-c3nn(CC4CCNC4)c4ccc(OC(F)F)cc34)nc12 (stereo not drawn) [Example I-265, 2-(5-Difluoromethoxy-1-pyrrolidin-3-ylmethyl-1H-indazol-3-yl)-5H-pyrrolo[2,3-b]pyrazine-7-carboxylic acid tert-butylamide]"
16,5.8 nM,"Cn1nc(-c2cnc3[nH]cc(C(=O)NC(C)(C)C#N)c3n2)c2ccc(Cl)cc21 [Example I-407, 2-(6-Chloro-1-methyl-1H-indazol-3-yl)-5H-pyrrolo[2,3-b]pyrazine-7-carboxylic acid (cyano-dimethyl-methyl)-amide]"

# Same assay, conditions: SYK_ENZYME_FILTRATION/v1, BSA, SYK aa 360-635 0.5 nM; ATP 20 μM, peptide 5 μM, 0.1% BSA
row,IC50,SMILES
1,14.3 nM,"CC(C)(CO)NC(=O)c1c[nH]c2ncc(-n3nc(C4CCNCC4)c4ccccc43)nc12 [Example I-347, 2-(3-Piperidin-4-yl-indazol-1-yl)-5H-pyrrolo[2,3-b]pyrazine-7-carboxylic acid (2-hydroxy-1,1-dimethyl-ethyl)-amide]"

# Reference: patent US8658646B2, “Pyrrolopyrazine kinase inhibitors” (Hoffmann-LaRoche Inc., priority 2011, dated 2014)
